Experimental data as given in ChEMBL document CHEMBL1146863, “1,4-Dihydroindeno[1,2-c]pyrazoles as novel multitargeted receptor tyrosine kinase inhibitors” (Bioorg Med Chem Lett, 2006).

How the values were obtained:
[1] = molecular target: Vascular endothelial growth factor receptor 1 (Homo sapiens, UniProt P17948)
[2] = molecular target: Mast/stem cell growth factor receptor Kit (Homo sapiens, UniProt P10721)
[3] = molecular target: Vascular endothelial growth factor receptor 2 (Homo sapiens, UniProt P35968)
Vascular endothelial growth factor receptor 2, sequence (P35968 whole entry): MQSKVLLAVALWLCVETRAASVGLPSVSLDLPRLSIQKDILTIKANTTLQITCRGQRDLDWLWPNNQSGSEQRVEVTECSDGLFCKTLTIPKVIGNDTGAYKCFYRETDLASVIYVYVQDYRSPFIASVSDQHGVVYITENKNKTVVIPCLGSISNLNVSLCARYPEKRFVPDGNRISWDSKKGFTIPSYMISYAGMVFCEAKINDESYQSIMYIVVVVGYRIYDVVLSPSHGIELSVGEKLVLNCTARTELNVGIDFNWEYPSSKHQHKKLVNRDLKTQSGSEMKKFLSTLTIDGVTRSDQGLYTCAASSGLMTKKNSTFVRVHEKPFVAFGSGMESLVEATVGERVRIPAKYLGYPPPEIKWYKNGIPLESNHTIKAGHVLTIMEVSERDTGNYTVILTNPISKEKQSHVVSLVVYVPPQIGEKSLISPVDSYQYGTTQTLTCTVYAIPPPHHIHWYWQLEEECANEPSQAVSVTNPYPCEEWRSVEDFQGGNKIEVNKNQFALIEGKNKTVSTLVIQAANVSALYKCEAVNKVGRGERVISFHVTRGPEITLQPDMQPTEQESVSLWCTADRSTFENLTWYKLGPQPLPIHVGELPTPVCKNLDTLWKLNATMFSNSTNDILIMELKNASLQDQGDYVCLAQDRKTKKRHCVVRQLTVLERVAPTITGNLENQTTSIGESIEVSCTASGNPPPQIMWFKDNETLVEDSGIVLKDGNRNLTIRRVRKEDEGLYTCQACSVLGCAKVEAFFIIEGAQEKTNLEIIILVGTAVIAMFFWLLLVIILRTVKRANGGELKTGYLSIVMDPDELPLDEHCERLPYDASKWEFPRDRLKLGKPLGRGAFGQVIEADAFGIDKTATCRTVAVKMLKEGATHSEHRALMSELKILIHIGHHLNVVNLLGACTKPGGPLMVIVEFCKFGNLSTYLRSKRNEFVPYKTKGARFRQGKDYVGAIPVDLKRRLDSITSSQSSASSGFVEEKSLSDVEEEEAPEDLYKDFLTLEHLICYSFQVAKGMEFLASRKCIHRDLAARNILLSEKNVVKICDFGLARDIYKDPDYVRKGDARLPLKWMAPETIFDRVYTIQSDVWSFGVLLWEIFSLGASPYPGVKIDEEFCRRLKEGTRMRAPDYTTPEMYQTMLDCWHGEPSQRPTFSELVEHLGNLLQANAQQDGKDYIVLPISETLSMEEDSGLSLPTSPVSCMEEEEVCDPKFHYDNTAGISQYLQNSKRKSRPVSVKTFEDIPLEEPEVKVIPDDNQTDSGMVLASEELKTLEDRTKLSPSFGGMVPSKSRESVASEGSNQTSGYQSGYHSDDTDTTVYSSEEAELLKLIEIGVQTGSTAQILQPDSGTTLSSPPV

Cytochrome P450 3A4 = Cytochrome P450 3A4 (Homo sapiens, UniProt P08684); assay: Inhibition of CYP3A4 in human liver microsome; assay type: ADME
Cytochrome P450 3A4, sequence (P08684 whole entry): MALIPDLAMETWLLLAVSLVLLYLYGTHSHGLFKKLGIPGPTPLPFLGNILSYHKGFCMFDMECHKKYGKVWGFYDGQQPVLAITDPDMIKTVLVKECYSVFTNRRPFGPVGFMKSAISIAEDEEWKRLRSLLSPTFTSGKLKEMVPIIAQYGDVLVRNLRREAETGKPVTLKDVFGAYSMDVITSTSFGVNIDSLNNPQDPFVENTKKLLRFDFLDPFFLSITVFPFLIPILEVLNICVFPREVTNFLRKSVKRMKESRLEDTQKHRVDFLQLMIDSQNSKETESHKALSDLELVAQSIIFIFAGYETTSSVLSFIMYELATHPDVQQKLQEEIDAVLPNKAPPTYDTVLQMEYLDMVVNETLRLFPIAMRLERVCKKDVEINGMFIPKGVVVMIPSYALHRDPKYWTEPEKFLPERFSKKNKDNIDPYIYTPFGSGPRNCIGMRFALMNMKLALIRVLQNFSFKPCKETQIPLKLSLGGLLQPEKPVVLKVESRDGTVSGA

Angiopoietin-1 receptor = Angiopoietin-1 receptor (Homo sapiens, UniProt Q02763); assay: Inhibition of Tie2 at 1 mM ATP by HTRF assay

Mast/stem cell growth factor receptor Kit, sequence (P10721 whole entry): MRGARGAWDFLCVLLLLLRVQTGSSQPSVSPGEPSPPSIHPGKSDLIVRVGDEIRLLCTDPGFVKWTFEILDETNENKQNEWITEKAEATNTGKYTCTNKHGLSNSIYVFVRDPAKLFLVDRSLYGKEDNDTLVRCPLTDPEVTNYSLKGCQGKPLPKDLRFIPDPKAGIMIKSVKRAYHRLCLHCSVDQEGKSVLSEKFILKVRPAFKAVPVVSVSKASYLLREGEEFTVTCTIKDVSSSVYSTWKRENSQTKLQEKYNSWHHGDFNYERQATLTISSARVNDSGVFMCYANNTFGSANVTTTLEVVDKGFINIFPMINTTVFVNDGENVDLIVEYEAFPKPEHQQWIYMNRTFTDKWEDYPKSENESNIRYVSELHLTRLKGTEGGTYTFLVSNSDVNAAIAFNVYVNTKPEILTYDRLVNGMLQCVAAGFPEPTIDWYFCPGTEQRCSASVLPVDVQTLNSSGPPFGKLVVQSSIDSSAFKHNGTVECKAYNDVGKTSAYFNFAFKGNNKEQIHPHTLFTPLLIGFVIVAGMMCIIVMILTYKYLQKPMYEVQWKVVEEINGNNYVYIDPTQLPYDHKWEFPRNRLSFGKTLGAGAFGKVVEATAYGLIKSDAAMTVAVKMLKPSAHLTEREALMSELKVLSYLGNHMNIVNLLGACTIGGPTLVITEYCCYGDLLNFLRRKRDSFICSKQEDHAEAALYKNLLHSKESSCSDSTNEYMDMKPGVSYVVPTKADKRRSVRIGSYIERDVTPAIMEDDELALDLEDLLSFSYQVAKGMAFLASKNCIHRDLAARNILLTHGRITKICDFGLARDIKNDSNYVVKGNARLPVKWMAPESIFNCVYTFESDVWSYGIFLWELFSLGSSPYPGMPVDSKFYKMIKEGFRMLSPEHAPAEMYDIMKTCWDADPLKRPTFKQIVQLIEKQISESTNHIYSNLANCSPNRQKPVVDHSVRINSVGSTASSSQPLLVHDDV
Vascular endothelial growth factor receptor 1, sequence (P17948 whole entry): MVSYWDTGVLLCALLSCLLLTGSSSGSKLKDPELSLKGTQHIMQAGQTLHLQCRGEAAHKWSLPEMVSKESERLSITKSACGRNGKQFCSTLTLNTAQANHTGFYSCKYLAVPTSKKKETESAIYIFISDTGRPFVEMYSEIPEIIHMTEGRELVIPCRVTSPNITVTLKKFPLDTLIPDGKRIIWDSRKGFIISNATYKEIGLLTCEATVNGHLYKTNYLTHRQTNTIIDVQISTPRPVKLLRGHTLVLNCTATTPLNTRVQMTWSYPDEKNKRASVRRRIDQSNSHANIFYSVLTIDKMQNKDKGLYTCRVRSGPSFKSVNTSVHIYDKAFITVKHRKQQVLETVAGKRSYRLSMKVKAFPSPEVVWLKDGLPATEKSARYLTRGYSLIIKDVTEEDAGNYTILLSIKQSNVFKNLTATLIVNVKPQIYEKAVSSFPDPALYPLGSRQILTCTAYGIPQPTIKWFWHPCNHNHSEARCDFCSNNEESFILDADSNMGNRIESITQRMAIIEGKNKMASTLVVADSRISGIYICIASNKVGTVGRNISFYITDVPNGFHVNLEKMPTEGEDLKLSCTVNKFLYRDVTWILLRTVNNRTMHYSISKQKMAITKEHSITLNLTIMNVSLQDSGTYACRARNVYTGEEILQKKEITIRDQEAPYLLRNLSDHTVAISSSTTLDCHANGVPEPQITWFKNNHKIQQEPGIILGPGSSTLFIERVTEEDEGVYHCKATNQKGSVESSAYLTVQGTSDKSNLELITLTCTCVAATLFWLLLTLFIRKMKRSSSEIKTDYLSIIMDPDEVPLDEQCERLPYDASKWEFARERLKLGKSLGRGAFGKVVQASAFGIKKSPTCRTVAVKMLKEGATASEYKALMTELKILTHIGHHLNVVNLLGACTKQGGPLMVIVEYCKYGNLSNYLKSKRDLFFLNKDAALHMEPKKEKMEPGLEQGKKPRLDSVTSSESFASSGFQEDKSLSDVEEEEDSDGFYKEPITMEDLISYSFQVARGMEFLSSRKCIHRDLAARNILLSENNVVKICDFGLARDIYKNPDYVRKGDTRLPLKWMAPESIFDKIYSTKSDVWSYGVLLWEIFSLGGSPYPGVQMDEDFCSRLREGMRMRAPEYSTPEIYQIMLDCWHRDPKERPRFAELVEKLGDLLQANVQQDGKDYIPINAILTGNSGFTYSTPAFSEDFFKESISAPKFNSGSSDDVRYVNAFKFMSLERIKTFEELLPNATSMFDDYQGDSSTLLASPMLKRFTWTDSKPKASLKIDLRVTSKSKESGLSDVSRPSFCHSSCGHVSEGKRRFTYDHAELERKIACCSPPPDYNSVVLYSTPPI

IC50 [1] | IC50 [2] | IC50 [3] | IC50 (Cytochrome P450 3A4) | IC50 (Angiopoietin-1 receptor) | Compound
19 nM | 56 nM | – | – | – | CN1CCN(Cc2ccc3c(c2)Cc2c-3n[nH]c2-c2ccc(CN(C)C(=O)Nc3cccc(OC(F)(F)F)c3)s2)CC1
3840 nM | > 50000 nM | – | – | – | CN1CCN(Cc2ccc3c(c2)Cc2c-3n[nH]c2-c2ccc(CN(C)C(=O)Nc3ccccc3Cl)s2)CC1
1350 nM | 237 nM | – | – | – | CON(Cc1ccc(-c2[nH]nc3c2Cc2cc(CN4CCN(C)CC4)ccc2-3)s1)C(=O)Nc1cccc(C)c1
14600 nM | 139 nM | – | – | – | Cc1cccc(N(C)C(=O)NCc2ccc(-c3[nH]nc4c3Cc3cc(CN5CCN(C)CC5)ccc3-4)s2)c1
– | – | > 50000 nM | – | – | CN1CCN(Cc2ccc3c(c2)Cc2c-3n[nH]c2-c2csc(CNS(=O)(=O)Cc3ccccc3)c2)CC1
59 nM | 75 nM | – | – | – | CCCN(Cc1ccc(-c2[nH]nc3c2Cc2cc(CN4CCN(C)CC4)ccc2-3)s1)C(=O)Nc1cccc(C)c1
64 nM | 36 nM | – | – | – | CN1CCN(Cc2ccc3c(c2)-c2n[nH]c(-c4ccc(CN(C)C(=O)Nc5ccc(Cl)cc5)s4)c2C3)CC1
613 nM | 27 nM | – | – | – | Cc1ccc(NC(=O)NCc2ccc(-c3n[nH]c4c3Cc3ccc(CN5CCN(C)CC5)cc3-4)s2)cc1
– | – | – | > 10000 nM | – | CN1CCN(Cc2ccc3c(c2)-c2[nH]nc(-c4ccsc4)c2C3)CC1
36 nM | 28 nM | – | – | – | CN1CCN(Cc2ccc3c(c2)-c2n[nH]c(-c4ccc(CN(C)C(=O)Nc5ccc(Cl)c(Cl)c5)s4)c2C3)CC1
27900 nM | 26800 nM | – | – | – | Cc1cccc(N(C)C(=O)N(C)Cc2ccc(-c3[nH]nc4c3Cc3cc(CN5CCN(C)CC5)ccc3-4)s2)c1
– | – | > 50000 nM | – | – | Cc1ccc2nc(NCc3ccc(-c4[nH]nc5c4Cc4cc(CN6CCN(C)CC6)ccc4-5)s3)[nH]c2c1
3620 nM | 4840 nM | – | – | – | Cc1cccc(NC(=O)N(CCC(C)C)Cc2ccc(-c3[nH]nc4c3Cc3cc(CN5CCN(C)CC5)ccc3-4)s2)c1
> 50000 nM | 23800 nM | – | – | – | CN1CCN(Cc2ccc3c(c2)Cc2c-3n[nH]c2-c2ccc(CNC(=O)Nc3ccccc3C(F)(F)F)s2)CC1
2260 nM | > 50000 nM | – | – | – | COCCN(Cc1ccc(-c2[nH]nc3c2Cc2cc(CN4CCN(C)CC4)ccc2-3)s1)C(=O)Nc1cccc(C)c1
44 nM | 96 nM | – | – | – | Cc1cccc(NC(=O)N(C)Cc2ccc(-c3n[nH]c4c3Cc3ccc(CN5CCN(C)CC5)cc3-4)s2)c1
– | – | 147 nM | 254 nM | – | c1cn(Cc2ccc3c(c2)-c2[nH]nc(-c4ccsc4)c2C3)cn1
25000 nM | 1390 nM | – | – | – | Cc1ccccc1NC(=O)NCc1ccc(-c2[nH]nc3c2Cc2cc(CN4CCN(C)CC4)ccc2-3)s1
2900 nM | 86 nM | – | – | – | Cc1cccc(NC(=O)NCc2ccc(-c3n[nH]c4c3Cc3cc(CN5CCN(C)CC5)ccc3-4)s2)c1

The remaining lines, values behind:

Compound | IC50 [1] | IC50 [2] | IC50 [3] | IC50 (Cytochrome P450 3A4) | IC50 (Angiopoietin-1 receptor)
CN1CCN(Cc2ccc3c(c2)-c2n[nH]c(-c4ccc(CN(C)C(=O)Nc5ccc(OC(F)(F)F)cc5)s4)c2C3)CC1 | 25 nM | 19 nM | – | – | –
Cc1ccccc1NC(=O)NCc1ccc(-c2[nH]nc3c2Cc2ccc(CN4CCN(C)CC4)cc2-3)s1 | 2060 nM | 674 nM | – | – | –
CN1CCN(Cc2ccc3c(c2)Cc2c(-c4ccc(CNC(=O)Nc5cc(Cl)cc(Cl)c5)s4)n[nH]c2-3)CC1 | 2280 nM | 38 nM | – | – | –
CCN(Cc1ccc(-c2[nH]nc3c2Cc2cc(CN4CCN(C)CC4)ccc2-3)s1)C(=O)Nc1cccc(C)c1 | 131 nM | 2190 nM | – | – | –
Cc1cccc(NC(=O)N(Cc2ccc(-c3[nH]nc4c3Cc3cc(CN5CCN(C)CC5)ccc3-4)s2)C(C)C)c1 | 2820 nM | 9750 nM | – | – | –
Cc1cc(C)cc(NC(=O)NCc2ccc(-c3n[nH]c4c3Cc3cc(CN5CCN(C)CC5)ccc3-4)s2)c1 | 1670 nM | 27 nM | – | – | –
CN1CCN(Cc2ccc3c(c2)Cc2c(-c4ccc(CNC(=O)Nc5ccc(C(F)(F)F)cc5)s4)n[nH]c2-3)CC1 | 4200 nM | 13 nM | – | – | –
Cc1cccc(NC(=O)NCc2ccc(-c3n[nH]c4c3Cc3ccc(CN5CCN(C)CC5)cc3-4)s2)c1 | 592 nM | 69 nM | – | – | –
Cc1cccc(NC(=O)N(C)Cc2ccc(-c3[nH]nc4c3Cc3cc(CN5CCN(C)CC5)ccc3-4)s2)c1 | 4720 nM | 14700 nM | – | – | –
CN1CCN(Cc2ccc3c(c2)-c2n[nH]c(-c4ccc(CN(C)C(=O)Nc5ccc(Br)cc5)s4)c2C3)CC1 | 38 nM | 17 nM | – | – | –
Cc1ccc(NC(=O)NCc2ccc(-c3[nH]nc4c3Cc3cc(CN5CCN(C)CC5)ccc3-4)s2)cc1 | 11500 nM | 24 nM | – | – | –
Cc1cccc(N/C(=N/Cc2ccc(-c3n[nH]c4c3Cc3cc(CN5CCN(C)CC5)ccc3-4)s2)NC#N)c1 | – | – | > 50000 nM | – | –
Cc1cccc(NC(=O)N(Cc2ccc(-c3[nH]nc4c3Cc3cc(CN5CCN(C)CC5)ccc3-4)s2)CC(C)C)c1 | 1590 nM | 17200 nM | – | – | –
Cc1cccc(NC(=O)N(Cc2ccc(-c3[nH]nc4c3Cc3cc(CN5CCN(C)CC5)ccc3-4)s2)C2CC2)c1 | 38 nM | 136 nM | – | – | –
CN1CCN(Cc2ccc3c(c2)-c2[nH]nc(-c4ccc(CNC(=O)Nc5ccccc5)s4)c2C3)CC1 | 3780 nM | 101 nM | – | – | –
CN1CCN(Cc2ccc3c(c2)-c2n[nH]c(-c4ccc(CN(C)C(=O)Nc5ccc(F)cc5)s4)c2C3)CC1 | 83 nM | 59 nM | – | – | –
CN1CCN(Cc2ccc3c(c2)Cc2c-3n[nH]c2-c2ccc(CN(C)C(=O)Nc3cc(F)cc(C(F)(F)F)c3)s2)CC1 | 33 nM | 25 nM | – | – | –
CN1CCN(Cc2ccc3c(c2)Cc2c(-c4ccc(CNC(=O)Nc5ccccc5Cl)s4)n[nH]c2-3)CC1 | – | 921 nM | – | – | –
CN1CCN(Cc2ccc3c(c2)-c2n[nH]c(-c4ccc(CN(C)C(=O)Nc5cccc(C(F)(F)F)c5)s4)c2C3)CC1 | 14 nM | 18 nM | – | – | 259 nM
CN1CCN(Cc2ccc3c(c2)-c2n[nH]c(-c4ccc(CN(C)C(=O)Nc5cccc(Cl)c5)s4)c2C3)CC1 | 20 nM | 38 nM | – | – | –
CN1CCN(Cc2ccc3c(c2)Cc2c-3n[nH]c2-c2ccc(CNC(=O)Nc3cccc(C(F)(F)F)c3)s2)CC1 | 863 nM | 17 nM | – | – | –
